Patent US20220008449A1, “A METHOD OF MIMICKING BENEFITS OF DIETARY RESTRICTION BY TRANSIENTLY UPREGULATING ER STRESS RESPONSE” (NATIONAL INSTITUTE OF IMMUNOLOGY, priority 2018, published 2022)
“Also recorded” adds a separate entry of the source.

Tests used:
Type in all cases: in vivo, Caenorhabditis elegans
C. elegans = assay: Adult life span after transient (first 24 h) Tm or 2DG supplementation
Experimental: Gravid adult worms, initially grown on E. coli OP50 were bleached and eggs were hatched on different RNAi plates. On reaching adulthood, 50-60 young adult worms were transferred to the similar RNAi plates in triplicates and overlaid with Fluoro-deoxyuridine (FudR) to final concentration of 0.1 mg/ml of agar (2). At the 7th Day of adulthood, sick, sluggish and slow dwelling worms were removed from the life span population and the remaining were considered as the number of subjects ‘N’. Following this, number of dead worms were scored every alternate day and plotted as % survival against the number of days. Statistical analysis for survival was conducted using Mantel-Cox Log Rank test using Oasis software. Average life span was also determined using the same method and represented as Mean life span±Standard Error Mean (S.E.M).
Overnight grown bacterial culture expressing Control or test RNAi were re-inoculated in 200 ml fresh LB media and grown at 37° C. until OD600 reached 0.5-0.6. The culture was divided in two parts (A and B) in a ratio of 1:3 and cells are pelleted separately using a centrifuge (4810R, Eppendorf, Germany) at 5000 r.p.m for 10 minutes at 4° C. Pellet from part B (150 ml) of the culture was resuspended in 1×M9 buffer containing 100 μg/ml ampicillin and 1 mM IPTG to 1/10th of its initial culture volume (for 150 ml culture, 15 ml of resuspension buffer was used) and 350 μl was seeded onto each RNAi plate and left for drying at room temperature for 24 hours.
Gravid adult worms initially grown on E. coli OP50 bacteria were bleached and eggs were re-suspended in 100-200 ul of 1×M9 buffer and standardized for the number of eggs present in a particular volume.
Entire composition of cocktail (total volume 1 ml) is mentioned as follows:
Eggs were left on rotation in this cocktail at a slow speed for 24 hrs. […] They were allowed to grow till adulthood when 100 worms belonging to each treatment regime were transferred onto FuDR containing RNAi plates and life span was scored as mentioned above. iUPR^ER efficiency was also measured on Day 2 of adulthood, as mentioned previously.
Since transient up-regulation of UPR^ER was observed, experiments were conducted to see its causal role in life span extension, as observed during DR. […] After the pharmaceutical reagent was washed off, the worms were grown on solid NGM media and post-adult life span was recorded. […] This observation supports the role of hormesis, triggered by an early ER stress as a mechanism of DR-mediated life span enhancement, in the models that were tested.

Phsp-4:gfp(zcIs4) worms = assay: Induced UPR^ER (iUPR^ER) efficiency, Phsp-4:gfp fluorescence after acute Tm challenge in adulthood; conditions: for iUPR^ER at adulthood after Tm hormesis: acute 5 mg/mL tunicamycin treatment, day 2 of adulthood
Experimental: Transgenic Phsp-4:gfp(zcIs4) and eat-2(ad1116);Phsp-4:gfp(zcIs4) were bleached and eggs were hatched on control RNAi. Worms were allowed to grow till adulthood and then transferred onto plates overlaid with FuDR to a final concentration of 0.1 mg/ml. […] Since Tm is dissolved in 0.05% DMSO, it was used as vehicle control. After 6 hours, 50 worms from each treatment were mounted onto 2% agarose slides and visualized using Axio-Imager M2 epifluorescent microscope with a GFP filter set (Carl Zeiss, Germany) Fluorescence of ≥20 Tm-treated and untreated worms was quantified using NIH ImageJ software. Average fluorescence of treated worms was normalized to untreated worms and plotted as normalized GFP fold induction at different days of adulthood. Similar procedure was followed to compare iUPR^ER efficiency of Phsp-4:gfp(zcIs4) on control and drl-1 RNAi on different days of adulthood.
Eggs were left on rotation in this cocktail at a slow speed for 24 hrs. Following this, the hatched L1 larvae were washed 3-4 times with 1×M9 buffer to remove traces of tunicamycin and added onto seeded control RNAi or test RNAi plates containing no reagent. They were allowed to grow till adulthood when 100 worms belonging to each treatment regime were transferred onto FuDR containing RNAi plates and life span was scored as mentioned above. iUPR^ER efficiency was also measured on Day 2 of adulthood, as mentioned previously.
Since it was observed that transient ER stress using Tm at early post-embryonic stage increased life span, it was tested whether this treatment could also lead to a better iUPR^ER efficiency with age. […] Importantly, hormetic up-regulation of the ER stress response during early developmental life leads to this increased ER efficiency contributing towards enhanced longevity during DR.

[1] = tested on: Punc-54:polyQ40:yfp worms; assay: PolyQ aggregate number in adult worms after transient Tm exposure
From the text: In order to evaluate the role of DR in augmenting the ERAD and its physiological consequences, a reporter was used that expresses a stretch of 40 glutamines (Q40) tagged with a yellow fluorescent protein in C. elegans muscle. This reporter strain was crossed with eat-2(ad1116) mutant worms to generate worms carrying both the reporter transgene and the eat-2 mutation (hereafter, referred to as eat-2;PolyQ). It was observed that incorporating eat-2 mutation led to 60-80% suppression in the number of aggregates at all age points, supporting the earlier observation of alleviation in the age-associated increase in PolyQ aggregation during DR (FIG. 6A). […] Since ire-1 was a requirement for DR-mediated longevity, it was tested whether this beneficial effect conferred under DR is also dependent on this gene.
It was reported that an atypical up-regulation of UPR^ER in larvae contributes towards increased life span during DR. It was shown that pharmaceutically mimicking the transient UPR^ER up-regulation during early larval life augmented the iUPR^ER efficiency with age and increased life span. To determine whether such hormetic intervention can protect against the age-related proteostasis collapse, WT worms were exposed with a range of concentrations of Tm only during the start of larval development, as mentioned before. […]

O=CC[C@@H](O)[C@H](O)[C@H](O)CO [2-DG, 2-deoxy glucose] was tested, and the “Effect on life span” value (C. elegans; WT, transient 2DG 0.0625 mM first 24 hours) was “increased; also recorded: significantly increasing life span”, the “Life span Mean ± SEM” value (C. elegans; Wild type, 2-DG 0.0625 mM for first 24 hours) was 21.21 ± 0.37 days and the “Life span % Change” value (C. elegans; Wild type, 2-DG 0.0625 vs 0 mM) was 11.69%. For the same molecule, the “Life span Mean ± SEM” value (C. elegans; ire-1(v33), 2-DG 0.0625 mM for first 24 hours) was 20.07 ± 0.26 days, the “Life span % Change” value (C. elegans; ire-1(v33), 2-DG 0.0625 vs 0 mM) was −0.64% and the “Effect on life span” value (C. elegans; ire-1(v33), transient 2DG treatment) was “failed to increase life span; also recorded: ire-1-dependent manner”.

Tunicamycin [Tm] was tested, and the “iUPR^ER at adulthood after Tm hormesis” value (Phsp-4:gfp(zcIs4) worms; control RNAi worms) was “even higher iUPR^ER”, the “iUPR^ER at adulthood after Tm hormesis” value (Phsp-4:gfp(zcIs4) worms; pha-4 RNAi worms) was “not able to increase the iUPR^ER response” and the “iUPR^ER efficiency at day 2 of adulthood” value (Phsp-4:gfp(zcIs4) worms; transient Tm 24 hours post-bleaching, challenge Tm 10 μg/ml for 6 hours on day 2) was “increases iUPR^ER efficiency; also recorded: higher iUPR^ER efficiency”. The “Effect on life span” value (C. elegans; WT larvae, 0.125 μg/ml Tm during first 24 hours) was “sufficient to extend lifespan; also recorded: significant extension of life span”, the “Dependence of Tm hormesis life span extension on PHA-4” value (C. elegans; WT on control or pha-4 RNAi, Tm 0.125 μg/mL initial 24 h) was “suppressed; also recorded: dependent on PHA-4” and the “Dependence of Tm life span effect on ire-1” value (C. elegans; WT vs ire-1(v33), Tm 0.125 μg/ml initial 24 hours) was “completely dependent on ire-1”. For the same molecule, the “Life span Mean ± SEM” value (C. elegans; Wild type (for eat-2 hormesis expt), Tm 0.125 μg/ml for first 24 hours) was 21.58 ± 0.36 days, the “Life span % Change” value (C. elegans; Wild type (for eat-2 hormesis expt), Tm 0.125 vs 0 μg/ml) was 15.83% and the “Life span Mean ± SEM” value (C. elegans; Wild type (for ire-1 hormesis expt), Tm 0.125 μg/ml for first 24 hours) was 22.02 ± 0.30 days. For the same molecule, the “Life span % Change” value (C. elegans; Wild type (for ire-1 hormesis expt), Tm 0.125 vs 0 μg/ml) was 18.83%, the “Life span Mean ± SEM” value (C. elegans; Wild type, Tm 0.125 μg/ml for first 24 hours) was 21.73 ± 0.28 days and the “Life span % Change” value (C. elegans; Wild type, Tm 0.125 vs 0 μg/ml) was 17.78%. For the same molecule, the “Life span Mean ± SEM” value (C. elegans; eat-2 (ad1116), Tm 0.125 μg/ml for first 24 hours) was 25.32 ± 0.45 days, the “Life span % Change” value (C. elegans; eat-2 (ad1116), Tm 0.125 vs 0 μg/ml) was −10.47% and the “Effect on life span” value (C. elegans; eat-2(ad1116), Tm supplementation) was “cannot further increase lifespan”. The “Life span Mean ± SEM” value (C. elegans; ire-1(v33), Tm 0.125 μg/ml for first 24 hours) was 18.64 ± 0.21 days, the “Life span % Change” value (C. elegans; ire-1(v33), Tm 0.125 vs 0 μg/ml) was −0.85% and the “Number of polyQ aggregates” value ([1]; Punc-54:polyQ40:yfp on control RNAi, 0.125 μg/ml and 0.25 μg/ml Tm during larval development, day 2 and day 3 of adulthood) was “suppression; also recorded: significant reduction in the number of aggregates”. For the same molecule, the “Number of polyQ puncta” value ([1]; ire-1(v33);Q40:yfp worms treated with hormetic dose of Tm (0.125 μg/ml)) was “significantly higher puncta at all age points”.
